The conditions of data set [1]: in vivo.
The conditions of data set [2]: no unit, species or route given; in mg/kg; cited from earlier work.

In the case of `N#CC(O)c1ccccc1` (stereo not drawn) [mandelonitrile], the “times less toxic than sodium cyanide” value in data set [1] is “approximately 18”. The LD50 value in data set [2] is 116. As for `CC(C)(O)C#N` [acetone cyanohydrin], in data set [2], the LD50 value was 18.65.

Source of the values: US8778685B2 (priority 2009, dated 2014).
